Assay results taken from patent US7951814B2, “Quinazolinedione derivatives as TRPA1 modulators” (Glenmark Pharmaceuticals, S.A., priority 2008, dated 2011).

Molecular target: T1, Human TRPA1 expressing CHO cells (Homo sapiens, UniProt O75762)
T1 construct: expressed in transfected cells; host or cells: CHO cells (under G-418 selection)
Experiment: 45Calcium uptake assay: inhibition of AITC induced cellular uptake of radioactive calcium
Type: cell-based
Conditions: AITC 30 μM, human TRPA1 CHO cells; for inhibition at 1 µM: 1.0 μM test compound, read-out: Percentage inhibition at 1.0 μM; for inhibition at 10 µM: 10.0 μM test compound, read-out: Percentage inhibition at 10.0 μM; for IC50: read-out: IC50 value (range)
Description: The illustrative examples of the present invention are screened for TRPA1 activity according to a modified procedure described in (a) Tóth, A. et al. Life Sciences (2003), 73, 487-498. ([…]. et al. Proc. Natl. Acad. Sci. U.S.A., (2007), 104, 13525-13530. The screening of the compounds can be carried out by other methods and procedures known to persons skilled in the art. Screening for TRPA1 Antagonist Using the ^45Calcium Uptake Assay The inhibition of TRPA1 receptor activation was measured as inhibition of allyl isothiocyanate (AITC) induced cellular uptake of radioactive calcium. […] Final concentration of DMSO in the reaction was 0.5% (v/v). […] Cells were seeded 24 h prior to the assay in 96 well plates so as to get 50,000 cells per well on the day of experiment. Cells were treated with test compounds for 10 min followed by addition of AITC at a final concentration of 30 μM and 5 μCi/ml ^45Ca^+2 for 3 min. […] Radioactivity in the lysate was measured in Packard Top count after addition of liquid scintillant. Concentration response curves were plotted as a % of maximal response obtained in the absence of test antagonist. IC50 value was calculated from concentration response curve by nonlinear regression analysis using GraphPad PRISM software.

T1 sequence (O75762 whole entry): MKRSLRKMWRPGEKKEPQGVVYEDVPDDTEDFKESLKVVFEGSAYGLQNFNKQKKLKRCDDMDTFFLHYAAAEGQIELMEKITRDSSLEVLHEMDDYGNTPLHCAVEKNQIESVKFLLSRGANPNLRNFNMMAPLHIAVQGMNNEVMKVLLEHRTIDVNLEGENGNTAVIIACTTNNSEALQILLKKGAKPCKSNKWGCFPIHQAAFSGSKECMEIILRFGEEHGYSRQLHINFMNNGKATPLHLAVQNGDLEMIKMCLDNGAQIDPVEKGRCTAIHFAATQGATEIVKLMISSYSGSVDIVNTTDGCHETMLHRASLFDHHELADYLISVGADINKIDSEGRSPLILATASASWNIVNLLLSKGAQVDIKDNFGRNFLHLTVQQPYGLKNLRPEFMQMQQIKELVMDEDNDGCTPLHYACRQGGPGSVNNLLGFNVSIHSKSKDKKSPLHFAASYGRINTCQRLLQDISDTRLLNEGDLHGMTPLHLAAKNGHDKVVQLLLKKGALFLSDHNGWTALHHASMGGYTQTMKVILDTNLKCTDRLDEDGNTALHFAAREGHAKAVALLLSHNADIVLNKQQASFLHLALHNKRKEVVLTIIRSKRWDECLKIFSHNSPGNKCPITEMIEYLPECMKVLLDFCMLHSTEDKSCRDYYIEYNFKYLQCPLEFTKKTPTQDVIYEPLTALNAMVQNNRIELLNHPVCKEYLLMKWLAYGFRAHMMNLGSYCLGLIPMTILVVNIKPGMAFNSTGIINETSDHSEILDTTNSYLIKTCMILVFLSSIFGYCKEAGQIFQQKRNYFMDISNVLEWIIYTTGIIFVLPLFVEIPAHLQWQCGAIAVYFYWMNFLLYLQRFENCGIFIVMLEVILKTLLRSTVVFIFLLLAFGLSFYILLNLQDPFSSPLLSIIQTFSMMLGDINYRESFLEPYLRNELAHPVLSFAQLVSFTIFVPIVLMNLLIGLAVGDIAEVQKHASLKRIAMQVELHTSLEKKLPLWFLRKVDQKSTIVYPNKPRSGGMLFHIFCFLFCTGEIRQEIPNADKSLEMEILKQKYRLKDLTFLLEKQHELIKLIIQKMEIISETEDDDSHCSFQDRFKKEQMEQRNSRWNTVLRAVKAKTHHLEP

`Cn1c(=O)c2c(CC(=O)Nc3nc(-c4ccccc4)cs3)cccc2n(C)c1=O` [Example 8, N1-[4-phenyl-1,3-thiazol-2-yl]-2-(1,3-dimethyl-2,4-dioxo-1,2,3,4-tetrahydro-5-quinazolinyl)acetamide] showed an inhibition at 1 µM of 52.9% and an inhibition at 10 µM of 79.9%.
`CC(C)c1ccc(-c2csc(NC(=O)Cc3cccc4c3c(=O)n(C)c(=O)n4C)n2)cc1` [Example 22, N1-[4-(4-isopropylphenyl)-1,3-thiazol-2-yl]-2-(1,3-dimethyl-2,4-dioxo-1,2,3,4-tetrahydro-5-quinazolinyl)acetamide] showed an inhibition at 1 µM of 95.3%, an inhibition at 10 µM of 98% and an IC50 of 50.1 to 100 nM.
With `Cn1c(=O)c2c(CC(=O)Nc3cccc(-c4ccc(C(F)(F)F)cc4)n3)cccc2n(C)c1=O` [Example 6, N1-[6-(4-Trifluoromethylphenyl)-2-pyridyl]-2-(1,3-dimethyl-2,4-dioxo-1,2,3,4-tetrahydro-5-quinazolinyl)acetamide] the inhibition at 1 µM was 71.3% and the inhibition at 10 µM was 88.2%.
`Cn1c(=O)c2c(CC(=O)Nc3nc(-c4cc(Cl)ccc4F)cs3)cccc2n(C)c1=O` [Example 52, N1-[4-(5-Chloro-2-fluorophenyl)-1,3-thiazol-2-yl]-2-(1,3-dimethyl-2,4-dioxo-1,2,3,4-tetrahydro-5-quinazolinyl)acetamide] was tested, and the inhibition at 1 µM was 92.5%, the inhibition at 10 µM was 95.3% and the IC50 was > 100 nM.
In the case of `CCn1c(=O)c2c(CC(=O)Nc3nc(-c4ccc(Cl)cc4)cs3)cccc2n(CC)c1=O` [Example 25, N1-[4-(4-Chlorophenyl)-1,3-thiazol-2-yl]-2-(1,3-diethyl-2,4-dioxo-1,2,3,4-tetrahydro-5-quinazolinyl)acetamide], the inhibition at 1 µM is reported as 20.4% and the inhibition at 10 µM is reported as 30.8%.
`Cn1c(=O)c2c(CC(=O)Nc3nc(-c4ccc(F)c(OC(F)(F)F)c4)cs3)cccc2n(C)c1=O` [Example 42] showed an inhibition at 1 µM of 98.3%, an inhibition at 10 µM of 99% and an IC50 of 50.1 to 100 nM.
Molecule `Cn1c(=O)c2c(CC(=O)Nc3nc(-c4cc(F)cc(F)c4)cs3)cccc2n(C)c1=O` [Example 34, N1-[4-(3,5-Difluorophenyl)-1,3-thiazol-2-yl]-2-(1,3-dimethyl-2,4-dioxo-1,2,3,4-tetrahydro-5-quinazolinyl)acetamide] has an inhibition at 1 µM of 15.8% and an inhibition at 10 µM of 85%.
With `Cn1c(=O)c2c(CC(=O)Nc3nc(-c4cc(F)c(C(F)(F)F)c(F)c4)cs3)cccc2n(C)c1=O` [Example 66, N1-{4-[3,5-Difluoro-4-trifluoromethylphenyl]-1,3-thiazol-2-yl}-2-(1,3-dimethyl-2,4-dioxo-1,2,3,4-tetrahydro-5-quinazolinyl)acetamide] the inhibition at 1 µM was 100%, the inhibition at 10 µM was 100% and the IC50 was < 50 nM.
`Cc1sc(NC(=O)Cc2cccc3c2c(=O)n(C)c(=O)n3C)nc1-c1ccc(Cl)cc1` [Example 30, N1-[4-(4-Chlorophenyl)-5-methyl-1,3-thiazolyl]-2-(1,3-dimethyl-2,4-dioxo-1,2,3,4-tetrahydro-5-quinazolinyl)acetamide] was tested, and the inhibition at 1 µM was 37.3% and the inhibition at 10 µM was 91%.
`Cn1c(=O)c2c(CC(=O)Nc3nc(-c4ccc(OC(F)(F)F)c(F)c4)cs3)cccc2n(C)c1=O` [Example 41] was tested, and the inhibition at 1 µM was 74.4%, the inhibition at 10 µM was 99.7% and the IC50 was < 50 nM.
For `Cn1c(=O)c2c(CC(=O)Nc3nc(-c4ccc(Cl)c(C(F)(F)F)c4)cs3)cccc2n(C)c1=O` [Example 55, N1-[4-(4-Chloro, 3-trifluoromethylphenyl)-1,3-thiazol-2-yl]-2-(1,3-dimethyl-2,4-dioxo-1,2,3,4-tetrahydro-5-quinazolinyl)acetamide], the inhibition at 1 µM was 100%, the inhibition at 10 µM was 100% and the IC50 was < 50 nM.
For `Cn1c(=O)c2c(CC(=O)Nc3nc(-c4cc(Cl)cc(Cl)c4)cs3)cccc2n(C)c1=O` [Example 48, N1-[4-(3,5-Dichlorophenyl)-1,3-thiazol-2-yl]-2-(1,3-dimethyl-2,4-dioxo-1,2,3,4-tetrahydro-5-quinazolinyl)acetamide], the inhibition at 1 µM was 96.3%, the inhibition at 10 µM was 100% and the IC50 was 50.1 to 100 nM.
`Cn1c(=O)c2c(CC(=O)Nc3nc(-c4ccc(Cl)cc4Cl)cs3)cccc2n(C)c1=O` [Example 45, N1-[4-(2,4-Dichlorophenyl)-1,3-thiazol-2yl]-2-(1,3-dimethyl-2,4-dioxo-1,2,3,4-tetrahydro-5-quinazolinyl)acetamide] was tested, and the inhibition at 1 µM was 82.1%, the inhibition at 10 µM was 95.5% and the IC50 was > 100 nM.
For `Cn1c(=O)c2c(CC(=O)Nc3nc(-c4ccc(F)cc4Cl)cs3)cccc2n(C)c1=O` [Example 54], the inhibition at 1 µM was 74.1%, the inhibition at 10 µM was 99.8% and the IC50 was < 50 nM.
In the case of `Cn1c(=O)c2c(CC(=O)Nc3nc(-c4cc(F)c(Cl)cc4Cl)cs3)cccc2n(C)c1=O` [Example 63, N1-[4-(2,4-Dichloro-5-fluorophenyl)-1,3-thiazol-2-yl]-2-(1,3-dimethyl-2,4-dioxo-1,2,3,4-tetrahydro-5-quinazolinyl)acetamide], the inhibition at 1 µM is reported as 87.1%, the inhibition at 10 µM is reported as 96.9% and the IC50 is reported as > 100 nM.
With `Cn1c(=O)c2c(CC(=O)Nc3nc(-c4ccc(C(C)(C)C)cc4)cs3)cccc2n(C)c1=O` [Example 20, N1-[4-(4-tert-Butylphenyl)-1,3-thiazol-2-yl]-2-(1,3-dimethyl-2,4-dioxo-1,2,3,4-tetrahydro-5-quinazolinyl)acetamide] the inhibition at 1 µM was 98.9%, the inhibition at 10 µM was 99.8% and the IC50 was 50.1 to 100 nM.
`COc1ccc(-c2csc(NC(=O)Cc3cccc4c3c(=O)n(C)c(=O)n4C)n2)cc1F` [Example 43] was tested, and the inhibition at 1 µM was 5.71% and the inhibition at 10 µM was 9.15%.
In the case of `Cn1c(=O)c2c(CC(=O)Nc3nc(-c4c(F)cccc4Cl)cs3)cccc2n(C)c1=O` [Example 53, N1-[4-(2-Chloro-6-fluorophenyl)-1,3-thiazol-2-yl]-2-(1,3-dimethyl-2,4-dioxo-1,2,3,4-tetrahydro-5-quinazolinyl)acetamide], the inhibition at 1 µM is reported as 33.1% and the inhibition at 10 µM is reported as 88.6%.
`Cn1c(=O)c2c(CC(=O)Nc3nc(-c4ccc(F)cc4C(F)(F)F)cs3)cccc2n(C)c1=O` [Example 39, N1-[4-(4-Fluoro-2-trifluoromethylphenyl)-1,3-thiazol-2-yl]-2-(1,3-dimethyl-2,4-dioxo-1,2,3,4-tetrahydro-5-quinazolinyl)acetamide] showed an inhibition at 1 µM of 51.6% and an inhibition at 10 µM of 90.3%.
For `Cn1c(=O)c2c(CC(=O)Nc3nc(-c4cc(F)c(OCC(F)(F)F)c(F)c4)cs3)cccc2n(C)c1=O` [Example 70, N1-{4-[3,5-Difluoro-4-(2,2,2-trifluoroethoxy)phenyl]-1,3-thiazol-2-yl}-2-(1,3-dimethyl-2,4-dioxo-1,2,3,4-tetrahydro-5-quinazolinyl)acetamide], the inhibition at 1 µM was 100%, the inhibition at 10 µM was 99.9% and the IC50 was < 50 nM.
Molecule `Cn1c(=O)c2c(CC(=O)Nc3nc4ccc(F)cc4s3)cccc2n(C)c1=O` [Example 76, N1-[6-Fluorobenzo[d][1,3]thiazol-2-yl)-2-(1,3-dimethyl-2,4-dioxo-1,2,3,4-tetrahydro-5-quinazolinyl)acetamide] has an inhibition at 1 µM of 33% and an inhibition at 10 µM of 28.5%.
`Cn1c(=O)c2c(CC(=O)Nc3nc(-c4c(F)ccc(C(F)(F)F)c4F)cs3)cccc2n(C)c1=O` [Example 68, N1-{4-[2,6-Difluoro-3-trifluoromethylphenyl]-1,3-thiazol-2-yl}-2-(1,3-dimethyl-2,4-dioxo-1,2,3,4-tetrahydro-5-quinazolinyl)acetamide] was tested, and the inhibition at 1 µM was 84.6%, the inhibition at 10 µM was 98.6% and the IC50 was > 100 nM.
For `Cn1c(=O)c2c(CC(=O)Nc3nc(-c4ccc(C5CCCCC5)cc4)cs3)cccc2n(C)c1=O` [Example 18, N1-[4-(4-Cyclohexylphenyl)-1,3-thiazol-2yl]-2-(1,3-dimethyl-2,4-dioxo-1,2,3,4-tetrahydro-5-quinazolinyl)acetamide], the inhibition at 1 µM was 79.3%, the inhibition at 10 µM was 88.3% and the IC50 was < 50 nM.
With `Cn1c(=O)c2c(CC(=O)Nc3nc(-c4ccc(OC(F)F)c(F)c4)cs3)cccc2n(C)c1=O` [Example 44, N1-[4-(4-Difluoromethoxyl-3-fluorophenyl)-1,3-thiazol-2-yl]-2-(1,3-dimethyl-2,4-dioxo-1,2,3,4-tetrahydro-5-quinazolinyl)acetamide] the inhibition at 1 µM was 46.2% and the inhibition at 10 µM was 99.2%.
Work on `Cn1c(=O)c2c(CC(=O)Nc3nc(-c4cccc(Cl)c4F)cs3)cccc2n(C)c1=O` [Example 50, N1-[4-(3-Chloro-2-fluorophenyl)-1,3-thiazol-2-yl]-2-(1,3-dimethyl-2,4-dioxo-1,2,3,4-tetrahydro-5-quinazolinyl)acetamide] yielded an inhibition at 1 µM of 95.3%, an inhibition at 10 µM of 98.9% and an IC50 of 50.1 to 100 nM.
With `CCOC(=O)n1c(=O)[nH]c2cccc(CC(=O)Nc3nc(-c4ccc(Cl)cc4)cs3)c2c1=O` [Example 28] the inhibition at 1 µM was 2.8% and the inhibition at 10 µM was 6.54%.
With `COc1c(F)cc(-c2csc(NC(=O)Cc3cccc4c3c(=O)n(C)c(=O)n4C)n2)cc1F` [Example 71, N1-[4-(3,5-Difluoro-4-methoxyphenyl)-1,3-thiazol-2-yl]-2-(1,3-dimethyl-2,4-dioxo-1,2,3,4-tetrahydroquinazolin-5-yl)acetamide] the inhibition at 1 µM was 83.6%, the inhibition at 10 µM was 98.9% and the IC50 was < 50 nM.
